Assay results from patent US10323013B2, “Inhibitors of the IRE-1/XBP-1 pathway and methods of using thereof” (H. LEE MOFFITT CANCER CENTER AND RESEARCH INSTITUTE, INC., priority 2013, dated 2019).
pIC50: −log10 of the molar value. “And” between values parts separate entries of the source, which are not always exact repeats. Identical values can stand only once. Like-named read-outs stand apart in the source and are kept apart here.

Key:
[1] = Degradation (chemical stability) studies by HPLC/LCMS; assay type: physicochemical; conditions: over 12 hours, rt
Description: The degradation of analog 24 was plotted as a function of time upon exposure to FRET-suppression assay buffer at rt. Aliquots were partitioned with MeOH and injected onto LCMS (UV monitored at 320 nm) and peaks integrated relative to internal standard.
A 20 mM stock solution of B-I09 in DMSO was diluted to 0.5 mM in FRET assay buffer (20 mM HEPES, pH 7.5, 50 mM KOAc, 0.5 mM MgCl2, 3 mM DTT, 0.4% PEG) or cell culture media (RPMI supplemented with 10% fetal bovine serum). The FRET assay buffer and cell culture media solutions were incubated at room temperature and 37° C., respectively. At various time points, a 50 μL aliquot of each solution was added to 50 μL of methanol and the mixture analyzed by analytical reverse-phase HPLC (C18 4 mm×150 mm column, 1 mL/min flow rate) with acetonitrile/water (0.1% formic acid) as eluent. Absorbance was read at 320 nm and the degradation product (aldehyde) was identified by LCMS and co-injection with pure synthetic sample. Degradation studies were carried out in duplicate and data points reported as the mean of two values.

XBP-1 mRNA splicing = XBP-1 mRNA splicing by RT-PCR; assay type: cell-based; conditions: human WaC3 CLL cells, 24 h
Description: Total RNA was isolated using TRIzol reagent (Invitrogen). Complementary DNA was synthesized from RNA using Superscript II reverse transcriptase (Invitrogen).

Eμ-TCL1 CLL cells [2] = assay: Cell proliferation XTT assay, Eμ-TCL1 CLL cells; assay type: cell-based, mouse; conditions: 50 μM, after 3 days
Description: (§1) Eμ-TCL1, MEC1, MEC2, WaC3, or primary human CLL cells were grown in 96-well cell culture plates overnight and then treated with fresh phenol red-free culture medium containing STF-083010 (50 μM), A-I06 (50 μM), A-I07 (50 μM) or fludarabine (30 μM). […] Briefly, 50 μl XTT labeling reagent was combined with 100 μl electron-coupling reagent, and the mixture was applied to each well of the 96-well plates. The test was based on cleavage of the yellow tetrazolium salt XTT by mitochondrial dehydrogenases of the metabolic active cells to form the orange formazan compound, which can be spectrophotometrically quantified at 492 nm using a BioTek microplate reader.

[3] = STF-083010 stability studies by RP-HPLC; assay type: physicochemical
Description: STF-083010 stability studies were performed using analytical reverse-phase high pressure liquid chromatography (RP-HPLC) with a C18 column (4 mm×150 mm) and a 10-90% linear gradient of acetonitrile in water (containing 0.1% formic acid) as eluent over 20 minutes (1 ml/min flow rate). Compounds were detected at λ=254 nm. Crystalline STF-083010 was analyzed on a standard Bruker X8 Apex2 CCD-based X-ray diffractometer, and the solid-state structure was solved and refined with the Bruker SHELXTL (version 6.12) software package. Diffraction data (excluding structure factors) for STF-083010 have been deposited with the Cambridge Crystallographic Data Centre as supplementary CCDC publication number 850879.

MEC2 cells = assay: Cell proliferation XTT assay, MEC2; assay type: cell-based, human; conditions: MEC2, 50 μM, first 48 h
Description: as §1

recombinant hIRE-1 = recombinant hIRE-1 (Homo sapiens (Human), UniProt O75460); assay: In vitro IRE-1 RNase FRET-suppression assay; assay type: biochemical; conditions: for IC50: text values of Example 3, unit printed as mM
Sequence of recombinant hIRE-1 (O75460 547-977): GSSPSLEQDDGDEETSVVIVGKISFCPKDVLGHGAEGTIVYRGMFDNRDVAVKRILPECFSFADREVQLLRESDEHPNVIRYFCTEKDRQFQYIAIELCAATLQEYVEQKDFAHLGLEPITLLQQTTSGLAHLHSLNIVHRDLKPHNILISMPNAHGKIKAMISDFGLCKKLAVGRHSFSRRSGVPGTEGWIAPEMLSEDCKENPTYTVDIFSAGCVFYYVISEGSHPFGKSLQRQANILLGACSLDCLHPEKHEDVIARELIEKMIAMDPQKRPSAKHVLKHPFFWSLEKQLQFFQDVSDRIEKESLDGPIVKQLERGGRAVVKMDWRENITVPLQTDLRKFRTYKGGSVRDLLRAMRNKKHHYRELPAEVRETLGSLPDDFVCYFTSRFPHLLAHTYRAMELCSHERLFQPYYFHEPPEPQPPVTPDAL
Description: Fluorescence was read at various time points using a Biotek Synergy H1 plate reader with excitation and emission at 620 nm and 680 nm, respectively. […] All fluorescence readings were corrected using background values from wells containing only 120 μL of 50 nM XBP-1 RNA.
Fluorescence was read at various time points using a Biotek Synergy H1 plate reader with excitation and emission at 620 nm and 680 nm, respectively. […] All fluorescence readings were corrected using background values from wells containing only 120 mL of 50 nM XBP-1 RNA.

XBP-1s expression = assay: Inhibition of XBP-1s expression in LPS-stimulated mouse B cells (immunoblots); assay type: cell-based; conditions: for inhibition of XBP-1 expression (in words): inhibitor 50 μM (b479 prints 50 mM), also Eμ-TCL1 CLL and WaC3 cells; for inhibition of XBP-1s expression (in words): LPS 48 h, then inhibitor 20 μM for 24 h (Example 3 prints 20 mM)
Description: The protein concentrations of the supernatants were determined by BCA assay (Pierce). […] Proteins were transferred to nitrocellulose membranes, blocked in 5% milk (wt/vol in PBS), and immunoblotted with the indicated antibodies and appropriate horseradish peroxidase-conjugated secondary antibodies. Following multiple washes in PBS, the blots were developed using Western Lighting Chemiluminescence Reagent (Perkin-Elmer).
Protein concentrations were determined by BCA assays (Pierce). […] Proteins were transferred to nitrocellulose membranes, blocked in 5% non-fat milk (wt/vol in PBS), and immunoblotted with indicated primary antibodies and appropriate horseradish peroxidase-conjugated secondary antibodies. Immunoblots were developed using Western Lighting Chemiluminescence Reagent (Perkin-Elmer).

MEC1 cells = assay: Cell proliferation XTT assay, MEC1; assay type: cell-based, human; conditions: MEC1, 50 μM, first 48 h
Description: as §1

WaC3 cells = assay: Cell proliferation XTT assay, WaC3; assay type: cell-based, human; conditions: for growth response (in words): WaC3, 50 μM, course of 4 days
Description: as §1

primary human CLL cells = assay: Cell proliferation XTT assay, primary human CLL cells; assay type: cell-based; conditions: primary human CLL cells, 50 μM, 3 days
Description: as §1

Eμ-TCL1 CLL cells [4] = assay: Annexin V/DAPI flow cytofluorometry of cultured Eμ-TCL1 CLL cells; assay type: cell-based, mouse; conditions: 50 μM or 100 μM for 24 h
Description: PBMCs were non-lethally obtained from mice following the submandibular bleed and RBC lysis (Qiagen). Nonspecific staining was first blocked for 30 min at 4° C. with 300 μl FBS per 1.0×10^6 cells. Cell surface staining was accomplished by 30-min incubation at 4° C. with 1 μl per 1.0×10^6 cells of the following anti-mouse antibodies: B220-Alexa488, CD19-APC-Cy7 (BD Pharmingen), IgM-Alexa568 (Invitrogen), CD5-APC (eBioscience) and CD138-PE (BD Pharmingen). Viability staining was accomplished using DAPI exclusion (10 μg/ml; 200 μl/1×10^6 cells) during acquisition. Apoptotic cells were detected by Annexin V-PE staining (BD Pharmingen). Acquisition of B-cell and CLL cell populations was performed on a LSRII cytometer (BD Biosciences) harboring a custom configuration for the H. Lee Moffitt Cancer Center & Research Institute, having multiple laser beams and detectors for excitation of various fluorophores and wide emission spectrum detection. Mid-range Spherotech FL1 fluorescent rainbow beads (BD Biosciences) were used to maintain consistent gains for all parameters across time points. Analysis of cytometry data was achieved using FlowJo software version 7.6.1 (Tree Star Inc.).

[5] = tested on: Eμ-TCL1 mice with high CLL burden; assay type: in vivo; conditions: A-I06 60 mg/kg i.p.
Description: Older Eμ-TCL1 mice (age >8 months) with high CLL burden in the peripheral blood were identified by examining the percentage of CLL cells in PBMCs. These mice then received intraperitoneal injections with A-I06 (60 mg/kg) dissolved in Cremophor® ELP (vehicle, Sigma). The progression of CLL was monitored by flow cytofluorometry.

[6] = Aqueous solubility (stated in words); assay type: physicochemical
[7] = read-out: IC50 in FRET-suppression assay

Structure (SMILES): C=CCOC(=O)N1CCc2c(c(=O)oc3c(C4OCCCO4)c(O)ccc23)C1 [Compound 24, allyl 7-(1,3-dioxan-2-yl)-8-hydroxy-5-oxo-4,5-dihydro-1H-chromeno[3,4-c]pyridine-3(2H)-carboxylate]
- decomposition of the 1,3-dioxane moiety in assay buffer (in words) [1]: no significant decomposition
- inhibition of splicing of XBP-1 mRNA (in words) (XBP-1 mRNA splicing): highly effective

Structure (SMILES): O=S(=O)(N=Cc1c(O)ccc2ccccc12)c1cccs1 [STF-083010]
- growth inhibition (Eμ-TCL1 CLL cells [2]): ~70%
- stability in 1:1 DMSO:water mixture (in words) ([3]; brief exposure): complete decomposition
- stability of DMSO stock solutions (in words) ([3]; repeated freeze-thaw cycles): readily hydrolyzed into precursors A-I06 and A-I07
- growth inhibition (MEC2 cells): ~20%
- IC50 (recombinant hIRE-1; [7]): 9.94 mM
- inhibition of XBP-1 expression (in words) (XBP-1s expression): can suppress the expression of XBP-1
- growth inhibition (MEC1 cells): ~20%
- growth response (in words) (WaC3 cells): gradually decreased growth
- cytotoxic effect (in words) (primary human CLL cells): significant cytotoxic effect

Structure (SMILES): Cc1cc(=O)oc2c(C=O)c(O)ccc12 [Compound 4μ8C, 7-hydroxy-4-methyl-2-oxo-2H-chromene-8-carbaldehyde]
- pIC50 (recombinant hIRE-1; 5 nM hIRE-1, 50 nM XBP-1 RNA, read-out: IC50 in FRET-suppression assay): 6.81 and 6.69
- inhibition of XBP-1s expression (in words) (XBP-1s expression): strong inhibition

Structure (SMILES): O=S(=O)(NCc1c(O)ccc2ccccc12)c1cccs1 [B-A05]
- inhibition of XBP-1 expression (in words) (XBP-1s expression): did not significantly alter XBP-1 expression

Structure (SMILES): C=CCOC(=O)N1CCc2c(c(=O)oc3c(C=O)c(O)ccc23)C1 [Compound 21b, Allyl 7-formyl-8-hydroxy-5-oxo-4,5-dihydro-1H-chromeno[3,4-c]pyridine-3(2H)-carboxylate]
- pIC50 (XBP-1s expression; Mus musculus, B-cell, LPS-stimulated B cells, 24 h, immunoblots, densitometry, approximate, read-out: IC50 for suppressing XBP-1s expression): ~5.29

Structure (SMILES): O=Cc1c(O)ccc2ccccc12 [A-I06, 2-hydroxynaphthaldehyde]
- growth inhibition (Eμ-TCL1 CLL cells [2]): ~70%
- growth inhibition (MEC2 cells): ~20%
- IRE-1 RNase inhibitory activity in FRET-suppression assay (in words) (recombinant hIRE-1): weaker activity
- IC50 (recombinant hIRE-1; [7]): 9.73 mM
- inhibition of XBP-1s expression (in words) (XBP-1s expression): requires a higher concentration to achieve complete inhibition
- inhibition of XBP-1 expression (in words) (XBP-1s expression): can suppress the expression of XBP-1
- inhibition of XBP-1 expression (in words) (XBP-1s expression; listed as 2): strong inhibition
- growth inhibition (MEC1 cells): ~20%
- growth response (in words) (WaC3 cells): gradually decreased growth
- GI50 (WaC3 cells; read-out: GI50 (50% growth inhibition concentration), WaC3 cells, 48 h, XTT): ~50 µM
- cytotoxic effect (in words) (primary human CLL cells): significant cytotoxic effect
- apoptosis (in words) (Eμ-TCL1 CLL cells [4]): Increased apoptosis
- apoptosis of CD5+/B220+ CLL cells in treated mice (in words) [5]: increase of Annexin V+ apoptotic CD5+/B220+CLL cells
- apoptosis of CD5−/B220+ B cells in treated mice (in words) [5]: does not induce CD5−/B220+ B cells to undergo apoptosis
- CLL burden (in words) ([5]; Day 0, 1, 12, 13): reduced CLL burden

Structure (SMILES): C=CCOC(=O)N1CCc2c(c(=O)oc3c(C=O)c(OCc4ccccc4)ccc23)C1 [Compound 27, allyl 7-formyl-8-benzyloxy-5-oxo-4,5-dihydro-1H-chromeno[3,4-c]pyridine-3(2H)-carboxylate]
- IRE-1 RNase inhibitory activity in FRET-suppression assay (in words) (recombinant hIRE-1): complete loss of potency below 20 mM
- pIC50 (recombinant hIRE-1; In vitro IRE-1 RNase inhibition by analogs of 21b, FRET-suppression assay, read-out: IC50): < 4.70

Structure (SMILES): N=C(N)N1CCc2c(c(=O)oc3c(C=O)c(O)ccc23)C1 [Compound 34, 7-Formyl-8-hydroxy-5-oxo-4,5-dihydro-1H-chromeno[3,4-c]pyridine-3(2H)-carboximidamide]
- solubility (in words) [6]: solubility decreased
- inhibition of XBP-1s expression (in words) (XBP-1s expression): did not effectively inhibit XBP-1s expression

Structure (SMILES): O=Cc1c(O)ccc2ccccc12 [A-I07]
- IRE-1 RNase inhibitory activity in FRET-suppression assay (in words) (recombinant hIRE-1): no appreciable inhibition at 20 mM
